According to ChEMBL document CHEMBL4680273, “Teixobactin: A Paving Stone toward a New Class of Antibiotics?” (2020):
≈ marks a conversion by molar mass, not a printed value. Where a SMILES comes first, the peptide text is derived from it. Bridges are numbered along the chain shown (N, C = ends). [ ]: non-standard residue; d: D form. d(aIle) = CC[C@H](C)[C@@H](N)C(=O)O; dNMeF = CN[C@H](Cc1ccccc1)C(=O)O

Assays:
Assay type in all cases: functional
Bacillus subtilis [1] = experiment: Antibacterial activity against Bacillus subtilis ATCC 6051 incubated for 16 hrs by UV/Visible absorbance method
Staphylococcus aureus [2] = experiment: Antibacterial activity against Staphylococcus aureus ATCC 29213 incubated for 16 hrs by UV/Visible absorbance method
Staphylococcus aureus [3] = experiment: Antibacterial activity against methicillin resistant Staphylococcus aureus ATCC 33591 incubated for 24 hrs
Bacillus subtilis [4] = experiment: Antibacterial activity against Bacillus subtilis 168 incubated for 24 hrs
Staphylococcus aureus [5] = experiment: Antibacterial activity against Staphylococcus aureus ATCC 29213 by CLSI-based broth microdilution method
Staphylococcus aureus [6] = experiment: Antibacterial activity against Staphylococcus aureus ATCC 29213
Staphylococcus aureus [7] = experiment: Antibacterial activity against methicillin resistant Staphylococcus aureus
Staphylococcus aureus [8] = experiment: Antibacterial activity against Staphylococcus aureus ATCC 29213 incubated for 24 hrs by CLSI-based broth microdilution method

SMILES	MIC (Staphylococcus aureus [3]) [µg/mL]	MIC (Bacillus subtilis [4]) [µg/mL]	also measured
CC[C@H](C)[C@H](NC(=O)[C@@H](Cc1ccccc1)NC)C(=O)N[C@@H](CO)C(=O)N[C@H](CCCCN)C(=O)N[C@@H](C(=O)N[C@H](C(=O)N[C@@H](C)C(=O)N[C@H]1C(=O)N[C@@H](C)C(=O)NC(CCCN)C(=O)N[C@@H]([C@@H](C)CC)C(=O)O[C@H]1C)[C@@H](C)CC)[C@@H](C)CC (stereo not given in full)	–	–	MIC (Bacillus subtilis [1]): 2 µg/mL (≈ 1.69 µM); MIC (Staphylococcus aureus [2]): 2 µg/mL (≈ 1.69 µM)
CC[C@H](C)[C@H](NC(=O)[C@@H](Cc1ccccc1)NC)C(=O)N[C@@H](CO)C(=O)N[C@H](CCC(N)=O)C(=O)N[C@@H](C(=O)N[C@H](C(=O)N[C@@H](CO)C(=O)N[C@H]1C(=O)N[C@@H](C)C(=O)N[C@@H](CCCCN)C(=O)N[C@@H]([C@@H](C)CC)C(=O)O[C@H]1C)[C@@H](C)CC)[C@@H](C)CC	1 (≈ 0.822 µM)	0.25 (≈ 0.206 µM)	–
CC[C@H](C)[C@H](NC(=O)[C@@H](Cc1ccccc1)NC)C(=O)N[C@@H](CO)C(=O)N[C@H](CCC(N)=O)C(=O)N[C@@H](C(=O)N[C@H](C(=O)N[C@@H](CO)C(=O)N[C@H]1C(=O)N[C@@H](C)C(=O)N[C@@H](CCCCN)C(=O)N[C@@H](C)C(=O)O[C@H]1C)[C@@H](C)CC)[C@@H](C)CC (H-[dNMeF]IS[dQ][d(aIle)]IS[dT]AKA; ester 8-C)	–	–	MIC (Bacillus subtilis [1]): 8 µg/mL (≈ 6.81 µM); MIC (Staphylococcus aureus [2]): 4 µg/mL (≈ 3.41 µM)
CC[C@H](C)[C@H](NC(=O)[C@@H](Cc1ccccc1)NC)C(=O)N[C@@H](CO)C(=O)N[C@H](CCC(N)=O)C(=O)N[C@@H](C(=O)N[C@H](C(=O)N[C@@H](CO)C(=O)N[C@H]1C(=O)N[C@@H](C)C(=O)NC(CN)C(=O)N[C@@H]([C@@H](C)CC)C(=O)O[C@H]1C)[C@@H](C)CC)[C@@H](C)CC (stereo not given in full)	4 (≈ 3.41 µM)	0.5 (≈ 0.426 µM)	–
CC[C@H](C)[C@H](NC(=O)[C@H](N)Cc1ccccc1)C(=O)N[C@@H](CO)C(=O)N[C@H](CCC(N)=O)C(=O)N[C@@H](C(=O)N[C@H](C(=O)N[C@@H](CO)C(=O)N[C@H]1C(=O)N[C@@H](C)C(=O)N[C@@H](CCCNC(=N)N)C(=O)N[C@@H]([C@@H](C)CC)C(=O)O[C@H]1C)[C@@H](C)CC)[C@@H](C)CC	–	–	MIC (Staphylococcus aureus [5]): 2 µg/mL (≈ 1.63 µM)
CC[C@H](C)[C@H](NC(=O)[C@@H](Cc1ccccc1)NC)C(=O)N[C@@H](CO)C(=O)N[C@H](CCC(N)=O)C(=O)N[C@@H](C(=O)N[C@H](C(=O)N[C@@H](C)C(=O)N[C@H]1C(=O)N[C@@H](C)C(=O)N[C@@H](CCCCN)C(=O)N[C@@H]([C@@H](C)CC)C(=O)O[C@H]1C)[C@@H](C)CC)[C@@H](C)CC	–	–	MIC (Staphylococcus aureus [6]): 32 µg/mL (≈ 26.7 µM); MIC (Staphylococcus aureus [7]): 32 µg/mL (≈ 26.7 µM)
CC[C@H](C)[C@H](NC(=O)[C@@H](Cc1ccccc1)NC)C(=O)N[C@@H](CO)C(=O)N[C@H](CCC(N)=O)C(=O)N[C@@H](C(=O)N[C@H](C(=O)N[C@@H](CO)C(=O)N[C@H]1C(=O)N[C@@H](C)C(=O)N[C@@H](CCCCNC(=N)N)C(=O)N[C@@H]([C@@H](C)CC)C(=O)O[C@H]1C)[C@@H](C)CC)[C@@H](C)CC	1 (≈ 0.795 µM)	0.125 (≈ 0.0993 µM)	–
CC[C@H](C)[C@H](NC(=O)[C@@H](N)Cc1ccccc1)C(=O)N[C@@H](CO)C(=O)N[C@H](CCC(N)=O)C(=O)N[C@@H](C(=O)N[C@H](C(=O)N[C@@H](CO)C(=O)N[C@H]1C(=O)N[C@@H](C)C(=O)N[C@@H](CCCNC(=N)N)C(=O)N[C@@H]([C@@H](C)CC)C(=O)O[C@H]1C)[C@@H](C)CC)[C@@H](C)CC	–	–	MIC (Staphylococcus aureus [8]): 2 µg/mL (≈ 1.63 µM)
CC[C@H](C)[C@H](NC(=O)[C@@H](Cc1ccccc1)NC)C(=O)N[C@@H](CO)C(=O)N[C@H](CCC(N)=O)C(=O)N[C@@H](C(=O)NC(C(=O)N[C@@H](CO)C(=O)N[C@H]1C(=O)N[C@@H](C)C(=O)N[C@@H](CCCNC(=N)N)C(=O)NC(C2CCCCC2)C(=O)O[C@H]1C)C1CCCCC1)[C@@H](C)CC (stereo not given in full)	–	–	MIC (Bacillus subtilis [1]): 1 µg/mL (≈ 0.771 µM)
CC[C@H](C)[C@H](NC(=O)[C@@H](Cc1ccccc1)NC)C(=O)N[C@@H](CO)C(=O)N[C@H](CCC(N)=O)C(=O)N[C@@H](C(=O)N[C@H](C(=O)N[C@@H](CO)C(=O)N[C@H]1C(=O)N[C@@H](C)C(=O)N[C@@H](CCN)C(=O)N[C@@H]([C@@H](C)CC)C(=O)O[C@H]1C)[C@@H](C)CC)[C@@H](C)CC	2 (≈ 1.68 µM)	1 (≈ 0.841 µM)	–
CC[C@H](C)[C@H](NC(=O)[C@@H](Cc1ccccc1)NC)C(=O)N[C@@H](CO)C(=O)N[C@H](CCC(N)=O)C(=O)N[C@@H](C(=O)N[C@H](C(=O)N[C@@H](CO)C(=O)N[C@H]1C(=O)N[C@@H](C)C(=O)N[C@@H](CCCN)C(=O)N[C@@H]([C@@H](C)CC)C(=O)O[C@H]1C)[C@@H](C)CC)[C@@H](C)CC	2 (≈ 1.66 µM)	0.25 (≈ 0.208 µM)	–
CC[C@H](C)[C@H](NC(=O)[C@@H](Cc1ccccc1)NC(=O)c1ccccc1)C(=O)N[C@@H](CO)C(=O)N[C@H](CCC(N)=O)C(=O)N[C@@H](C(=O)N[C@H](C(=O)N[C@@H](CO)C(=O)N[C@H]1C(=O)N[C@@H](C)C(=O)N[C@@H](CCCNC(=N)N)C(=O)N[C@@H]([C@@H](C)CC)C(=O)O[C@H]1C)[C@@H](C)CC)[C@@H](C)CC	–	–	MIC (Staphylococcus aureus [8]): 8 µg/mL (≈ 5.99 µM)
